Measurements published in article PMC3967766 (Journal of medicinal chemistry, 2013).
“Also recorded” adds a separate entry of the source. Like-named read-outs stand apart in the source and are kept apart here.

Assays:
CB2 receptor [1] = target: T1, CB2 receptor (Homo sapiens, UniProt P34972); test: cell-based LANCE cAMP assay in CHO cells stably expressing CB2
CB2 receptor [2] = target: T1, CB2 receptor; test: [3H]CP-55,940 radioligand competition binding assay, CB2
RAW 264.7 cells [3] = test: RANKL-induced osteoclast formation assay; conditions: 5 days; for inhibitory activity on RANKL-induced osteoclast formation: RAW 264.7, RANKL 15 ng/mL; for inhibition rate of osteoclast formation: RANKL 15 ng/mL
RAW 264.7 cells [4] = test: MTT cytotoxicity assay on osteoclast precursors; format: cell-based, mouse; conditions: for cell viability versus vehicle control: 1.25 and 2.5 µM; for cell viability: 5 and 10 µM
CB1 receptor = CB1 receptor (Homo sapiens, UniProt P21554); test: [3H]CP-55,940 radioligand competition binding assay, CB1; conditions: read-out: Ki (CB1); [3H]CP-55,940 competition, CB1 membrane protein
Sequence of CB1 receptor (P21554 whole entry): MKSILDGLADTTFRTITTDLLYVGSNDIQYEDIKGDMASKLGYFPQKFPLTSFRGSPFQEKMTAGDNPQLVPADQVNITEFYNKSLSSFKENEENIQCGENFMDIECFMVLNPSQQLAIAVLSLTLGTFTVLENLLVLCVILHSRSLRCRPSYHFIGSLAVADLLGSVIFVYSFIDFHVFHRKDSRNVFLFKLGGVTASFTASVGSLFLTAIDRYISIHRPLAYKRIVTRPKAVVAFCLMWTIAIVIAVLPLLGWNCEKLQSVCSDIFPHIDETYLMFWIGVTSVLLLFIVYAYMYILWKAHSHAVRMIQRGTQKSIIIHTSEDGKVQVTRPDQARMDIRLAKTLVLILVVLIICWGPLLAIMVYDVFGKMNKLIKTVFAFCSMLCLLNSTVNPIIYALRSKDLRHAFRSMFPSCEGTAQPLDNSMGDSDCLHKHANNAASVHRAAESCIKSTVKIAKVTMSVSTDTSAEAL

T1 sequence (P34972 whole entry): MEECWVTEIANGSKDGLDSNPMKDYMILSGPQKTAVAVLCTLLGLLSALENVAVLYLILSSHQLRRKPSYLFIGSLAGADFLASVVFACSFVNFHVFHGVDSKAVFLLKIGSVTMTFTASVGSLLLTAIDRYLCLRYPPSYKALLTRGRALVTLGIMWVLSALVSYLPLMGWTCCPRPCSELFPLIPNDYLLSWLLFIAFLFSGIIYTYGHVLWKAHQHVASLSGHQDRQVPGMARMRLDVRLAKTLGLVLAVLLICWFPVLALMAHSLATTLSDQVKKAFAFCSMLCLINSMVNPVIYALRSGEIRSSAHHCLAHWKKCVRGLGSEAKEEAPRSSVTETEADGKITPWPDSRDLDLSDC

CCCCCCC(C)(C)c1cc(OC)c([C@H]2C=C(CO)[C@H]3C[C@@H]2C3(C)C)c(OC)c1 (stereo in doubt) [HU308, reference compound]
CB2 functional activity (CB2 receptor [1]; LANCE cAMP assay): agonists

CCCCCCC(C)(C)c1ccc([C@@H]2C[C@H](O)CC[C@H]2CCCO)c(O)c1 [CP55940, reference compound]
CB2 functional activity (CB2 receptor [1]): agonists

Cc1ccc(Cn2nc(C(=O)NC3C4(C)CCC(C4)C3(C)C)cc2-c2ccc(Cl)c(C)c2)cc1 (stereo not drawn) [Compound 5, SR144528, reference compound]
CB2 functional activity (CB2 receptor [1]): inverse agonists

CCN(CC)c1ccc(CN([C@]23C[C@H]4C[C@H](C[C@H](C4)C2)C3)S(=O)(=O)c2ccc(F)cc2)cc1 [Compound 21, N-((3s,5s,7s)-Adamantan-1-yl)-N-(4-(diethylamino)benzyl)-4-fluorobenzenesulfonamide]
CB2 functional activity (CB2 receptor [1]; LANCE cAMP assay): inverse agonists

CCN(CC)c1ccc(CN([C@]23C[C@H]4C[C@H](C[C@H](C4)C2)C3)S(=O)(=O)c2cccc(C)c2)cc1 [Compound 25, N-((3s,5s,7s)-Adamantan-1-yl)-N-(4-(diethylamino)benzyl)-3-methylbenzenesulfonamide]
Ki (CB2 receptor [2]): 0.025 µM | inhibitory activity on RANKL-induced osteoclast formation (RAW 264.7 cells [3]): inhibit RANKL-induced osteoclastogenesis in a dose-dependent manner; also recorded: potent inhibitory activity

CCN(CC)c1ccc(CN(c2ccc(Cl)cc2)S(=O)(=O)c2ccc(OC)cc2)cc1 [Compound 48, N-(4-Chlorophenyl)-N-(4-(diethylamino)benzyl)-4-methoxybenzenesulfonamide]
cell viability versus vehicle control (RAW 264.7 cells [4]; 3 days, MTT): not significantly affected | cell viability (RAW 264.7 cells [4]; 3 days, MTT): only some effects on cell viability | CB2 functional activity (CB2 receptor [1]; LANCE cAMP assay): inverse agonists | inhibition rate of osteoclast formation (RAW 264.7 cells [3]; 1 µM): good inhibition activity | inhibitory activity on RANKL-induced osteoclast formation (RAW 264.7 cells [3]): inhibit RANKL-induced osteoclastogenesis in a dose-dependent manner; also recorded: potent inhibitory activity

CCN(CC)c1ccc(CN(C(=O)Cc2ccc(Cl)cc2)c2ccc(Cl)cc2)cc1 [Compound 52, N,2-bis(4-Chlorophenyl)-N-(4-(diethylamino)benzyl)acetamide]
Ki (CB1 receptor): > 20 µM

CCN(CC)c1ccc(CN(c2ccc(C)cc2)S(=O)(=O)c2ccccc2)cc1 [Compound 54, N-(4-(Diethylamino)benzyl)-N-(p-tolyl)benzenesulfonamide]
CB2 functional activity (CB2 receptor [1]; LANCE cAMP assay): inverse agonists

CCN(CC)c1ccc(CN(c2ccc(C)cc2)S(=O)(=O)c2ccc(OC)cc2)cc1 [Compound 57, N-(4-(Diethylamino)benzyl)-4-methoxy-N-(p-tolyl)benzenesulfonamide]
effect on cell viability (RAW 264.7 cells [4]; 5 µM, 3 days, MTT): only slight effect on cell viability | cell viability versus vehicle control (RAW 264.7 cells [4]; 3 days, MTT): not significantly affected | cell viability (RAW 264.7 cells [4]; 3 days, MTT): only some effects on cell viability | cytotoxic effects on RAW 264.7 (RAW 264.7 cells [4]; cell viability test, overall): very low cytotoxic effects | CB2 functional activity (CB2 receptor [1]; LANCE cAMP assay): inverse agonists | inhibition rate of osteoclast formation (RAW 264.7 cells [3]; 0.1 µM): strongest inhibition activity | inhibition rate of osteoclast formation (RAW 264.7 cells [3]; 1 µM): good inhibition activity | inhibitory activity on RANKL-induced osteoclast formation (RAW 264.7 cells [3]): potent inhibitory activity; also recorded: inhibit RANKL-induced osteoclastogenesis in a dose-dependent manner
